Measurements published in patent publication US20250051330A1, “HETEROCYCLIC COMPOUND HAVING ANTI-TUMOR ACTIVITY AND USE THEREOF” (CSPC Zhongqi Pharmaceutical Technology (Shijiazhuang) Co., …, priority 2021, published 2025).
Like-named read-outs stand apart in the source and are kept apart here.

Experiments:
K-Ras^G12D and hSOS1 = biological target: T1, K-Ras^G12D and hSOS1 (Homo sapiens, UniProt Q07889); assay: K-Ras G12D and hSOS1 binding assay (HTRF); settings: inhibition of binding of K-Ras G12D to hSOS1, HTRF; read-out: Activity by IC50 (nM), SOS1 inhibitory activity
T1 construct: variant: G12D
T1 sequence (Q07889 whole entry, looked up, stated change not applied): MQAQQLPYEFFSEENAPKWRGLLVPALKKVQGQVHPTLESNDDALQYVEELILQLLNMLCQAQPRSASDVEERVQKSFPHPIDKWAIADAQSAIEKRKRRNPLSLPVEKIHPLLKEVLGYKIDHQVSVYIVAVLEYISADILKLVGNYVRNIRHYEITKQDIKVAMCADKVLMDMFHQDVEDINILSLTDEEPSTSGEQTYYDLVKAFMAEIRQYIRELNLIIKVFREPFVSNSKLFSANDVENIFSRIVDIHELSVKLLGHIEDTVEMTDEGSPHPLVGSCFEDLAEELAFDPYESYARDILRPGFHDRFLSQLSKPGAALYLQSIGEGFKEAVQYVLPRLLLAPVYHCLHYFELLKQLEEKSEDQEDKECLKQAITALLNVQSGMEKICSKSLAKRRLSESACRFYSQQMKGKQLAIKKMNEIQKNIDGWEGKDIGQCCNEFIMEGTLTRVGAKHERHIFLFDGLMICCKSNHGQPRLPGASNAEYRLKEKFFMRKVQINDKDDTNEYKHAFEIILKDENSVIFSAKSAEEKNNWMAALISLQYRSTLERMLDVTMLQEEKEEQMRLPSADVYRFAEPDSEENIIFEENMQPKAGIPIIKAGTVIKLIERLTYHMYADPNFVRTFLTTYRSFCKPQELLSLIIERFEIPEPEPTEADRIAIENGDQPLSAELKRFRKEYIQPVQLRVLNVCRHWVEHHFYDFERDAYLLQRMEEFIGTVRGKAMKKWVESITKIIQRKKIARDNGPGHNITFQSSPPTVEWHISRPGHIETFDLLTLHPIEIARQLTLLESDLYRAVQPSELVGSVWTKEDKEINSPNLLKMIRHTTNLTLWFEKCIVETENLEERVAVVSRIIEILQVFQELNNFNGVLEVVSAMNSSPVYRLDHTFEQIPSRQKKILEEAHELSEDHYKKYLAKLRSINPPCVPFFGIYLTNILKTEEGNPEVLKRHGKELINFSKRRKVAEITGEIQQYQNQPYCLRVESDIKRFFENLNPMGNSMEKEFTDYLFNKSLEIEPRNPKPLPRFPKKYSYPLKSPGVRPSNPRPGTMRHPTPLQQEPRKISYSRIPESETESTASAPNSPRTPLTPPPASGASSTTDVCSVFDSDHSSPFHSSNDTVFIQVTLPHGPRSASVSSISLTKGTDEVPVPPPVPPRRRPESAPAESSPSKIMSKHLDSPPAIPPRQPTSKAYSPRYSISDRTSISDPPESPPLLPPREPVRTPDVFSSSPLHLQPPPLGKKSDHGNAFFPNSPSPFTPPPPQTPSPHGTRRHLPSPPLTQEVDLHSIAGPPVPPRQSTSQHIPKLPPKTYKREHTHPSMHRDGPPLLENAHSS
Method: 1. K-Ras^G12D and hSOS1 Binding Assay
This assay could be used to examine the potency of the compounds to inhibit the protein-protein interaction between SOS1 and KRAS G12D. The binding of anti-GSK-Europium (FRET donor)-conjugated GST-KRas^G12D to anti-6His-XL665-conjugated His-tagged hSOS1 ([…]) was detected by homogeneous time-resolved fluorescence (HTRF), and the inhibitory effects of the compounds on the binding of K-Ras^G12D to hSOS1 were determined.
• Buffer (5 mM HEPES pH 7.4, 150 mM NaCl, 10 mM EDTA, 1 mM DTT, 0.05% BAS pH 7.0, 0.0025% 1gepal, and 100 mM KF); • GST-tagged hK-RasG12D (produced in-house); • His-tagged hSOS1 (produced in-house);
• 10 nM (final concentration) GST-hK-RasG12D and 2 nM (final concentration) anti-GSK-Europium in assay buffer were mixed, and set aside at room temperature.
• 20 nM (final concentration) His-tagged hSOS1 and 10 nM (final concentration) anti-6His-XL665 in assay buffer were mixed, and set aside at room temperature.
The test compound was dissolved in DMSO at a concentration of 100 times the assay concentration. 50 nL of the solution of compound was pipetted by Hummingbird liquid handler or Echo acoustic system to a black microassay plate.
All the experimental steps were conducted at 20° C. In the experiment, 2.5 μL of the liquid mixture of Ras was added to all wells of the assay plate using a Multidrop dispenser. After pre-incubation for 2 min, 2.5 μL of the liquid mixture of SOS was added to all the test wells other than the marginal wells, and 2.5 μL of the […], as a control, was added to the marginal wells. After incubation for 60 min, the assay plate passed through the HTRF module of Pheraster (excitation light: 337 nm, emission light 1: 620 nm, emission light 2: 665 nm).
The IC50 values were calculated and analyzed using a four-parameter logistic regression model.

NCI-H358 cells = assay: 3D cell proliferation inhibition assay (CellTiter-Glo 3D); type: cell-based; settings: Homo sapiens, read-out: Activity by IC50 (nM), inhibitory activity against NCI-H358 cell proliferation
Source text: The cell proliferation inhibition assay was used to determine the abilities of compounds to inhibit the proliferation and growth of SOS1-mediated tumor cells at the in vitro 3D cellular level. The CellTiter-Glo® 3D Cell Viability Assay was employed.
• NCI-H358: KRAS G12C-mutated non-small cell lung cancer (NSCLC); • CellTiter-Glo® 3D Cell Viability Assay, Promega, G9683; • RPMI 1640 medium, Gibco, A10491-01; • FBS, Gibco, 10099141C.
• Day 1: NCI-H358 cells were passaged into a T75 cell culture flask. • Day 3: the medium was removed; the cells were rinsed once with DPBS, and digested at room temperature or at 37° C. using 2 mL of TrypLE™ Express Enzyme until the cells were detached; the resultant was added with 5 mL of fresh medium, and centrifuged at 1000 rpm for 5 min; the supernatant was discarded, and 5 mL of fresh medium was added to resuspend the cells; the cells were counted and then seeded at 40 μL/well in a 3D cell culture plate (Echo Qualified 384-Well Polypropylene Microplate 2.0, Clear, Flat Bottom).
• Day 1: the test compound was dissolved in DMSO to prepare a 10 mM stock solution; after a 1000-fold dilution with DMSO, the test compound solution was subjected to ten 3-fold serial dilutions starting from a concentration of 10 μM; 200 nL of the compound solution was added to the culture plate. • Day 8: CTG 3D reagent was added at 40 μL/well, and the signal was detected using Envision.
The IC50 values of the compounds were fitted using the Graphpad Prism 8 nonlinear regression equation.
[formula] • X: Log of cpd concentration; • Y: Percent inhibition (% inh).

[1] = 192 h, NCI-H358 (KRAS G12C-mutated NSCLC), 3D culture, CTG 3D read on Day 8

Row | Structure (SMILES) | IC50 (K-Ras^G12D and hSOS1) [nM] | IC50 (NCI-H358 cells; [1]) [nM] | IC50 (NCI-H358 cells; NCI-H358, 192 h) [nM]
1 | CC(=O)N1CC=C(c2cc3c(N[C@H](C)c4cccc(C(F)(F)F)c4)nc(C)nc3n3cnnc23)CC1 [Example 2] | 10 to 50 | 100 to 500 | 
2 | Cc1nc(N[C@H](C)c2cccc(C(F)(F)F)c2)c2cc(N3CCN(C)CC3)c3nncn3c2n1 [Example 3] | 10 to 50 | 100 to 500 | 
3 | Cc1nc(N[C@H](C)c2cccc(C(F)(F)F)c2)c2cc(N3CCOCC3)c3nncn3c2n1 [Example 4] | 10 to 50 | 100 to 500 | 
4 | Cc1nc(N[C@H](C)c2cc(N)cc(C(F)(F)F)c2)c2c(n1)N1CCN=C1C(c1ccn(C)c(=O)c1)=C2 [Example 6] |  |  | < 50
5 | Cc1nc(N[C@H](C)c2cccc(C(F)F)c2F)c2c(n1)N1CCN=C1C(c1ccn(C)c(=O)c1)=C2 [Example 7] |  |  | < 50
6 | Cc1nc(N[C@H](C)c2cccc(C(F)F)c2F)c2cc(-c3ccn(C)c(=O)c3)n3cnnc3c2n1 [Example 9] | 10 to 50 |  | 
7 | Cc1nc(N[C@H](C)c2cccc(C(F)(F)F)c2F)c2cc(-c3ccn(C)c(=O)c3)n3cnnc3c2n1 [Example 10] | 10 to 50 |  | 
8 | Cc1nc(N[C@H](C)c2cccc(C(F)F)c2F)c2c(n1)N1CCN=C1C(c1ccc(=O)[nH]c1)=C2 [Example 12] | < 10 | 100 to 500 | 
9 | CC(=O)N1CC=C(C2=Cc3c(N[C@H](C)c4cccc(C(F)F)c4F)nc(C)nc3N3CCN=C23)CC1 [Example 31] | 10 to 50 | < 50 | 
10 | Cc1nc(N[C@H](C)c2cccc(C(F)(F)F)c2)c2c(n1)N1CCN=C1C(c1ccc(=O)n(C)c1)=C2 [Example 65] | 10 to 50 | 100 to 500 | 
11 | Cc1nc(N[C@H](C)c2cccc(C(F)(F)CO)c2)c2c(n1)N1CCN=C1C(c1ccc(=O)n(C)c1)=C2 [Example 71] | < 10 | 100 to 500 | 
12 | Cc1nc(N[C@H](C)c2cccc(C(F)(F)F)c2)c2c(n1)N1CCN=C1C(c1cccnc1)=C2 [Example 94] |  | 100 to 500 | 
13 | Cc1nc(N[C@H](C)c2cccc(C(F)(F)F)c2)c2c(n1)N1CCN=C1C(c1cncc(C#N)c1)=C2 [Example 95] |  | 100 to 500 | 
14 | Cc1nc(N[C@H](C)c2cccc(C(F)(F)F)c2)c2c(n1)N1CCN=C1C(c1ccc(=O)n(CCO)c1)=C2 [Example 97] | < 10 | 100 to 500 | 
15 | CCn1cc(C2=Cc3c(N[C@H](C)c4cccc(C(F)(F)F)c4)nc(C)nc3N3CCN=C23)ccc1=O [Example 98] | < 10 | 100 to 500 | 
16 | Cc1nc(N[C@H](C)c2cccc(C(F)(F)F)c2)c2c(n1)N1CCN=C1C(c1cccn(C)c1=O)=C2 [Example 99] | 10 to 50 | 100 to 500 | 
17 | COCCn1cc(C2=Cc3c(N[C@H](C)c4cccc(C(F)(F)F)c4)nc(C)nc3N3CCN=C23)ccc1=O [Example 100] |  | 100 to 500 | 
18 | Cc1nc(N[C@H](C)c2cccc(C(F)(F)F)c2)c2c(n1)N1CCN=C1C(c1ccc(=O)n(CC(F)F)c1)=C2 [Example 101] |  | 100 to 500 | 
19 | Cc1nc(N[C@H](C)c2cccc(C(F)(F)F)c2)c2c(n1)N1CCN=C1C(c1cccc(=O)n1C)=C2 [Example 102] |  | 100 to 500 | 

Row | Structure (SMILES) | IC50 (K-Ras^G12D and hSOS1) [nM] | IC50 (NCI-H358 cells; [1]) [nM] | IC50 (NCI-H358 cells; NCI-H358, 192 h) [nM]
20 | Cc1nc(N[C@H](C)c2cccc(C(F)(F)F)c2)c2c(n1)N1CCN=C1C(c1cnc(=O)n(C)c1)=C2 [Example 103] |  | 100 to 500 | 
21 | Cc1nc(N[C@H](C)c2cccc(C(F)(F)F)c2)c2c(n1)N1CCN=C1C(c1cn(C)c(=O)n(C)c1=O)=C2 [Example 104] |  | 100 to 500 | 
22 | Cc1nc(N[C@H](C)c2cccc(C(F)(F)F)c2)c2c(n1)N1CCN=C1C(c1ccc(=O)n(C(C)C)c1)=C2 [Example 105] |  | 100 to 500 | 
23 | Cc1nc(N[C@H](C)c2cccc(C(F)(F)F)c2)c2c(n1)N1CCN=C1C(c1cc(C)c(=O)n(C)c1)=C2 [Example 106] |  | 100 to 500 | 
24 | Cc1nc(N[C@H](C)c2cccc(C(F)(F)F)c2)c2c(n1)N1CCN=C1C(c1ccn(CCO)c(=O)c1)=C2 [Example 107] |  | 100 to 500 | 
25 | Cc1nc(N[C@H](C)c2cccc(C(F)(F)F)c2)c2c(n1)N1CCN=C1C(c1ccn(C3COC3)c(=O)c1)=C2 [Example 108] |  | 50 to 100 | 
26 | [2H]C([2H])([2H])n1ccc(C2=Cc3c(N[C@H](C)c4cccc(C(F)(F)F)c4)nc(C)nc3N3CCN=C23)cc1=O [Example 109] | 10 to 50 | 50 to 100 | 
27 | C[C@@H](Nc1nc(C2CC2)nc2c1C=C(c1ccn(C)c(=O)c1)C1=NCCN12)c1cccc(C(F)(F)F)c1 [Example 110] |  | 100 to 500 | 
28 | C[C@@H](Nc1nc(C2CC2)nc2c1C=C(c1ccc(=O)n(C)c1)C1=NCCN12)c1cccc(C(F)(F)F)c1 [Example 111] |  | 100 to 500 | 
29 | Cc1nc(N[C@H](C)c2cccc(C(F)(F)F)c2)c2c(n1)N1CCN=C1C(c1ccn(CF)c(=O)c1)=C2 [Example 113] |  | 100 to 500 | 
30 | Cc1nc(N[C@H](C)c2cc(C(F)(F)F)ccn2)c2c(n1)N1CCN=C1C(c1ccn(C)c(=O)c1)=C2 [Example 117] |  | 100 to 500 | 
31 | Cc1nc(N[C@H](C)c2cccc(C(F)(F)CO)c2)c2c(n1)N1CCN=C1C(c1ccn(C)c(=O)c1)=C2 [Example 118] | < 10 | 100 to 500 | 
32 | Cc1nc(N[C@H](C)c2cccc(C(F)(F)C(C)(C)O)c2F)c2c(n1)N1CCN=C1C(c1ccc(=O)n(C)c1)=C2 [Example 119] |  | 50 to 100 | 
33 | Cc1nc(N[C@H](C)c2cccc3c2OCC3(F)F)c2c(n1)N1CCN=C1C(c1ccc(=O)n(C)c1)=C2 [Example 120] |  | 100 to 500 | 
34 | Cc1nc(N[C@H](C)c2cccc3c2OCC3(F)F)c2c(n1)N1CCN=C1C(c1ccn(C)c(=O)c1)=C2 [Example 121] |  | 100 to 500 | 
35 | Cc1nc(N[C@H](C)c2cccc(C(F)F)c2F)c2c(n1)N1CCN=C1C(C1=CCN(S(C)(=O)=O)CC1)=C2 [Example 122] | < 10 | 50 to 100 | 
36 | Cc1nc(N[C@H](C)c2cccc(C(F)F)c2F)c2c(n1)N1CCN=C1C(C1=CCN(C(=O)CC#N)CC1)=C2 [Example 123] | < 10 | 50 to 100 | 
37 | Cc1nc(N[C@H](C)c2cccc(C(F)F)c2F)c2c(n1)N1CCN=C1C(C1=CCN(C(=O)C3(F)CC3)CC1)=C2 [Example 124] | < 10 | 50 to 100 | 
38 | Cc1nc(N[C@H](C)c2cccc(C(F)F)c2F)c2c(n1)N1CCN=C1C(C1(O)CCN(C(=O)C3(F)CC3)CC1)=C2 [Example 125] |  | 50 to 100 | 
